Results as given in patent US20210284944A1, “HIGH-THROUGHPUT MULTI-ORGAN PERFUSION MODELS” (Novartis AG, priority 2018, published 2021).

Legend:
[1] = test system: HCT116 colorectal cancer cells; test: Hepatocyte-cancer cell crosstalk: prodrug added to hepatocyte well, cell death in connected HCT116 well (live/dead staining); format: cell-based; settings: increasing concentrations of Tegafur (0, 100, 200, 300 and 400 uM) added to hepatocyte chamber; fluidic flow 72 hours
Description: 20,000 primary human hepatocytes (Lonza) (Hepatocyte plating medium for 4 hours, followed by hepatocyte maintenance medium with 0.3% (v/v) matrigel GFR for 20 hours) or HepG2 cells (to be transfected with CYP2A6 cDNA (as per vendor's recommendation)) were plated in one well of the two connected wells in their respective cell culture medium (catalog number 3386 for Transwell® plate). Prior to plating the primary human hepatocytes from Lonza, the Transwell® plate was coated with 0.1 mg/ml collagen (50 μls) ([…] Sigma-collagen I rat tail solution) (solubilized in 0.1% acetic acid in 1×PBS (v/v)) for 1 hour at 37° C. (cell culture incubator) and washed with 1×PBS. The primary human hepatocytes were sandwiched in the human hepatocyte maintenance medium with 0.3% matrigel GFR (v/v) for the next 20 hours. In the other connected well of each test unit, 20,000 HCT116 cells were plated directly on the Transwell® membrane in McCoy's 5A media. For HepG2 cells, the cells were transfected with CYP2A6 cDNA for 48 hours prior to any drug addition. On the day of drug addition, the HCT116 colorectal cancer cells were moved into hepatocyte media in order to prevent mixing of different mediums. The high-throughput microfluidic device illustrated in FIG. 5B was cleaned, assembled and sterilized via autoclaving for 60 minutes. […]

[2] = test system: primary human hepatocytes; test: Hepatocyte-cancer cell crosstalk: viability of the hepatocytes after drug treatment; format: cell-based; settings: Tegafur added to hepatocyte chamber; 72 hours
Description: 20,000 primary human hepatocytes (Lonza) (Hepatocyte plating medium for 4 hours, followed by hepatocyte maintenance medium with 0.3% (v/v) matrigel GFR for 20 hours) or HepG2 cells (to be transfected with CYP2A6 cDNA (as per vendor's recommendation)) were plated in one well of the two connected wells in their respective cell culture medium (catalog number 3386 for Transwell® plate). Prior to plating the primary human hepatocytes from Lonza, the Transwell® plate was coated with 0.1 mg/ml collagen (50 μls) (C3867 Sigma—collagen I rat tail solution) (solubilized in 0.1% acetic acid in 1×PBS (v/v)) for 1 hour at 37° C. (cell culture incubator) and washed with 1×PBS. The primary human hepatocytes were sandwiched in the human hepatocyte maintenance medium with 0.3% matrigel GFR (v/v) for the next 20 hours.
The high-throughput microfluidic device illustrated in FIG. 5B was cleaned, assembled and sterilized via autoclaving for 60 minutes. The wells of the autoclave-sterilized high-throughput microfluidic device (with two wells connected for each test unit) were filled with 300 μLs of media and centrifuged at 40 r.c.f for 4 minutes to fill all the flow channels. […] FIG. 12A depicts how the wells are filled, and FIG. 12B illustrates a test unit of the system. […]

[3] = test system: HCT116 colon cancer cells; test: Staurosporine acute toxicity on HCT116 cells in connected wells of the microfluidic device (live/dead staining); format: cell-based; settings: for cell death (live/dead staining): 24 hours
Description: 20,000 HCT116 cells were plated directly on the Transwell® membrane (catalog number 3386 for Transwell® plate) in McCoy's 5A media such that the connected wells preceding them were either filled with McCoy's 5A media (50 μls) alone or filled with 25 μls of 2.5 mg/ml collagen gel, with McCoy's 5A media (50 μls) above it. The arrangement is depicted in FIG. 11A, showing three pairs of connected wells (test units), where the lower well in each connected pair (test unit) has medium only, while the upper well in each test unit has HCT116 cells inside the well.
The high-throughput microfluidic device of FIG. 5B was cleaned, assembled and sterilized via autoclaving for 60 minutes. The wells of the autoclave sterilized high-throughput microfluidic device (two-well connects) were filled with 300 μLs of media and centrifuged at 40 r.c.f for 4 minutes to fill all the channels.
After 24 hours of culture, 50 μls of fresh media with different concentrations of staurosporine were added to different wells (see FIG. 11A). The device was placed on a compressed air system and the fluid was pumped via membrane flexion under a compressed air cycle of 1.5 psi (amplitude), sinusoidal wave pattern with a frequency of 0.2. The cells were imaged with live/dead staining after 24 hours to understand the diffusion characteristics of the drug and resulting cell death induced by staurosporine. […] Note that each image of the cells in a single well is divided into quadrants.

[4] = test system: heart, liver and lung microfluidic modules; settings: Skardal et al., Scientific Reports 7(1), 8837 (2017); cited from earlier work

**Q.** With O=c1[nH]c(=O)n(C2CCCO2)cc1F (centres unmarked) [Tegafur] as the molecule, how does the “toxicity to HCT116 eGFP cells in the connected wells” value [1] read?
**A.** significant dose dependent toxicity

**Q.** What about the “propidium iodide stain in the hepatocytes” value [2] of the same molecule?
**A.** slight dose dependent increase

**Q.** And the “viability of hepatocytes after drug treatment” value [2]?
**A.** high viability

**Q.** What does the source list for CN[C@@H]1C[C@H]2O[C@@](C)([C@@H]1OC)n1c3ccccc3c3c4c(c5c6ccccc6n2c5c31)C(=O)NC4 [staurosporine]?
**A.** cell death (live/dead staining) ([3]; test units with collagen gel plug as diffusion barrier, higher concentration of staurosporine): only a minor increase in cell death; cell death in the HCT116 cells ([3]; test units without collagen gel, 0 μM, 25 μM and 50 μM staurosporine in connected well, 24 hours of operation): dose-dependent cell death; cell death (live/dead staining) ([3]; without collagen gel, second image, 25 uM staurosporine): significant cell death; cell death (live/dead staining) ([3]; without collagen gel, third image, 50 uM staurosporine): much more cell death

**Q.** Which “toxicity in multi-organ system” value [4] does the source give for bleomycin here?
**A.** induce lung inflammatory factor-driven cardiotoxicity
